Assay [1] deals with T1, adenosine A1 receptor (Bos taurus, UniProt P28190).
T1 construct: were homogenized with a Brinkman polytron and the membranes were collected by centrifugation; from tissue; host or cells: bovine caudate membranes
T1 sequence (P28190 1-326): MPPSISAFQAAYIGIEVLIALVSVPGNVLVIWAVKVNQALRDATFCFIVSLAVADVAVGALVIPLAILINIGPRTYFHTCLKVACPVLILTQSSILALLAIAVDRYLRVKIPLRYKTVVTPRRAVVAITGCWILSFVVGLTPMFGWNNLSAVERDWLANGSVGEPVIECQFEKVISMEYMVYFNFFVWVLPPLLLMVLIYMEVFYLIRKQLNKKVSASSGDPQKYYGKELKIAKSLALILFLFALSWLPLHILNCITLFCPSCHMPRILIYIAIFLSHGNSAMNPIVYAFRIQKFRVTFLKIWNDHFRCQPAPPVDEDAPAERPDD
The assay is described as follows: Receptor affinity (radioligand binding), A1, [3H]CHA. The arrangement: species or system bovine. Conditions: for Ki: [3H]CHA, room temperature, 2 hours, tissues listed: bovine caudate, guinea pig cortex, guinea pig striatum (only Example 13 marked guinea pig); for Selectivity Ratio (A2 Ki /A1 Ki): radioligand binding. How it is done: (§1) 1. Receptor Affinity Experiments (Radioligand Binding)
(§2) Tissues (bovine caudate, guinea pig cortex, guinea pig striatum) were homogenized with a Brinkman polytron and the membranes were collected by centrifugation at 40,000×g at 4° C. for 10 min. The membranes were washed by resuspension and centrifugation, resuspended, and incubated in the presence of 1 U/ml adenosine deaminase for 15-30 min. at 37° C. The membranes were diluted, centrifuged once, and resuspended to a final concentration of 0.5-2 mg protein/ml. Adenosine deaminase (0.1 U/ml) was included in the final resuspension. Assays were initiated by addition of membranes. The compounds of the present invention were subjected to the following experimental conditions: A1 determinations/incubated with [^3 H]CHA at room temperature for 2 hours, A2 determinations/incubated with [^3 H]NECA at room temperature for 1 hour. Assays were terminated by filtration, and the filters were counted in scintillation counters.

The next assay deals with adenosine A2 receptor. The assay is described as follows: Receptor affinity (radioligand binding), A2, [3H]NECA. The arrangement: species or system bovine / guinea pig. As to conditions: room temperature, 1 hour. How it is done: as §1, §2
The target of assay [2] is T2, adenosine A1 receptor (Cavia porcellus, UniProt P47745).
T2 construct: from tissue; host or cells: isolated guinea pig left atria
T2 sequence (P47745 1-326): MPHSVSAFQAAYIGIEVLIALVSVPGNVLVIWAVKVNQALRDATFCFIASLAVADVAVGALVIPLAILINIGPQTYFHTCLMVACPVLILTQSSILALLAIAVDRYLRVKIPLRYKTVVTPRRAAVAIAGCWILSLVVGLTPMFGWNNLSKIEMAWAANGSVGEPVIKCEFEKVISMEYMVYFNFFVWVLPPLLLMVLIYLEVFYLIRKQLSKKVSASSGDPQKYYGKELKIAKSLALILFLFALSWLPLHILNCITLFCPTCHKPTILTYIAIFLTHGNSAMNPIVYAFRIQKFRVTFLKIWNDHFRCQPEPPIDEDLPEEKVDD
Nature of the assay: A1 in vitro functional test: negative inotropic response, left atria, antagonism of NECA. The assay is classed as cell-based, guinea pig. As to conditions: for Selectivity Ratio (A2 KB /A1 KB): functional; for Kb: guinea pig left atria, electrically evoked twitch, NECA agonist, 31° C, Schild plot, read-out: A1 KB (antagonist dissociation constant). How it is done:
2. Adenosine--A1 /A2 In Vitro Functional Tests
(A1 Assay: Negative inotropic response)-Guinea pig left atria were placed in organ baths filled with Krebs Henseleit solution gassed with 95% O2 and 5% CO2 and maintained at a temperature of 31° C. An initial resting tension of 1 gm. was placed on each tissue, which was allowed to equilibrate. Atria were stimulated electrically to produce twitch responses. A dose-response curve for the inhibition of the electrically-evoked twitch response was obtained by cumulative addition of the adenosine agonist […]. After the washout of the tissue, a fixed concentration of test compound was added and the tissue allowed to equilibrate for 1 hr. before cumulative additions of the adenosine agonist 5'-N-ethylcarboxamidoadenosine (NECA) to generate a new dose response curve. This procedure was repeated with different fixed concentrations of test compounds to generate a family of dose response curves. Schild plots were constructed from the resultant concentration-effect curves, and KB (antagonist dissociation constant) values were obtained. The results (see Table VII) are expressed as KB values (concentration of test compound such that one-half of the tissue adenosine receptor population is occupied by the test compound).

Structures are written as SMILES.

For `Cn1c(C#N)nc2c(N[C@H]3C[C@H]4CC[C@@H]3C4)ncnc21` (relative stereo) [Example 1, (±)-N^6-(endo-2'-norbornyl)-8-cyano-9-methyladenine], at adenosine A1 receptor [1], the inhibitory constant (Ki) came out at 3.89 nM and the “Selectivity Ratio (A2 Ki /A1 Ki)” value was 362. Further, at adenosine A2 receptor, the Ki is 1410 nM. For the same compound, at adenosine A1 receptor [2], the “Selectivity Ratio (A2 KB /A1 KB)” value came out at 46 and the antagonist dissociation constant (Kb) came to 81 nM.
As for `Cn1c(C(N)=O)nc2c(N[C@H]3C[C@H]4CC[C@@H]3C4)ncnc21` (relative stereo) [Example 2, (±)-N^6-(endo-2'-norbornyl)-8-amido-9-methyladenine], at adenosine A1 receptor [1], the affinity, expressed as Ki, was 12.9 nM and the “Selectivity Ratio (A2 Ki /A1 Ki)” value was determined as 275. This compound also registered an inhibition constant Ki on adenosine A2 receptor of 3550 nM. Further, at adenosine A1 receptor [2], the “Selectivity Ratio (A2 KB /A1 KB)” value is listed as over 390 and the antagonist dissociation constant (Kb) worked out at 257 nM.
As to `CSc1nc2c(N[C@H]3C[C@H]4CC[C@@H]3C4)ncnc2n1C` (relative stereo) [Example 3, (±)-N^6-[endo-2'-norbornyl]-8-methylthio-9-methyladenine], on adenosine A1 receptor [1], the inhibition constant Ki worked out at 6.03 nM and the “Selectivity Ratio (A2 Ki /A1 Ki)” value came to 66. The compound further registered a Ki on adenosine A2 receptor of 398 nM. Also, at adenosine A1 receptor [2], the “Selectivity Ratio (A2 KB /A1 KB)” value is reported as over 1540 and the Kb is 65 nM.
With `COc1nc2c(N[C@H]3C[C@H]4CC[C@@H]3C4)ncnc2n1C` (relative stereo) [Example 4, (±)-N^6-(endo-2'-norbornyl)-8-methoxy-9-methyladenine], at adenosine A1 receptor [1], affinity was put at a Ki of 12 nM and the “Selectivity Ratio (A2 Ki /A1 Ki)” value is given as 43. Also, the inhibition constant Ki at adenosine A2 receptor came out at 513 nM. Moreover, at adenosine A1 receptor [2], the “Selectivity Ratio (A2 KB /A1 KB)” value is listed as 250 and the Kb is 105 nM.
`CN(C)c1nc2c(N[C@H]3C[C@H]4CC[C@@H]3C4)ncnc2n1C` (relative stereo) [Example 5, (+)-N^6-(endo-2'-norbornyl)-8-dimethylamino-9-methyladenine]: at adenosine A1 receptor [1], the Ki came out at 3.71 nM and the “Selectivity Ratio (A2 Ki /A1 Ki)” value is 166. In addition, the affinity at adenosine A2 receptor, expressed as Ki, was 617 nM. Further, at adenosine A1 receptor [2], the “Selectivity Ratio (A2 KB /A1 KB)” value stood at 362 and the Kb amounted to 110 nM.
In the case of `Cn1c(N2CCOCC2)nc2c(N[C@H]3C[C@H]4CC[C@@H]3C4)ncnc21` (relative stereo) [Example 6], on adenosine A1 receptor [1], the affinity, expressed as Ki, was 24 nM and the “Selectivity Ratio (A2 Ki /A1 Ki)” value is given as over 417. Also, the Ki on adenosine A2 receptor is over 10000 nM.
In the case of `Cn1c(N2CCCC2)nc2c(N[C@H]3C[C@H]4CC[C@@H]3C4)ncnc21` (relative stereo) [Example 7], at adenosine A1 receptor [1], the affinity corresponds to a Ki of 19 nM and the “Selectivity Ratio (A2 Ki /A1 Ki)” value was over 526. Besides, the inhibition constant Ki on adenosine A2 receptor was over 10000 nM.
On to `Cn1c(N2CCSCC2)nc2c(N[C@H]3C[C@H]4CC[C@@H]3C4)ncnc21` (relative stereo) [Example 9], for which, on adenosine A1 receptor [1], the Ki stood at 7.94 nM and the “Selectivity Ratio (A2 Ki /A1 Ki)” value was 1,259. Moreover, the affinity on adenosine A2 receptor corresponds to a Ki of 10000 nM.
Taken in the same sequence, the figures for `CCCCN(C)c1nc2c(N[C@H]3C[C@H]4CC[C@@H]3C4)ncnc2n1C` (relative stereo) [Example 11] were 45.8 nM, 240 and 11000 nM.
For the compound `Cn1c(N2CCOCC2)nc2c(N[C@H]3C[C@@H]4C[C@H]3C[C@@H]4O)ncnc21` (relative stereo) [Example 25], the results for the Ki at adenosine A1 receptor [1] and at adenosine A2 receptor were 19 nM and over 10000 nM, respectively. For the same compound, the “Selectivity Ratio (A2 Ki /A1 Ki)” value on adenosine A1 receptor [1] is over 526.
As for `CC(C)Nc1nc2c(N[C@@H]3C[C@H]4C[C@@H]3C[C@H]4O)ncnc2n1C` (relative stereo) [Example 26], on adenosine A1 receptor [1], the affinity, expressed as Ki, was 9.55 nM and the “Selectivity Ratio (A2 Ki /A1 Ki)” value was determined as 602. The compound further had a Ki at adenosine A2 receptor of 5750 nM.
With `Cn1c(Br)nc2c(N[C@@H]3C[C@H]4C[C@@H]3C[C@@H]4O)ncnc21` (relative stereo) [Example 27], on adenosine A1 receptor [1], the Ki was determined as 5.01 nM and the “Selectivity Ratio (A2 Ki /A1 Ki)” value is 132. The same compound showed a Ki at adenosine A2 receptor of 661 nM.
`CN(C)c1nc2c(N[C@@H]3C[C@@H]4CC(=O)[C@H]3C4)ncnc2n1C` (relative stereo) [Example 28]: at adenosine A1 receptor [1], the inhibitory constant (Ki) worked out at 8.31 nM and the “Selectivity Ratio (A2 Ki /A1 Ki)” value is recorded as 550. The compound further displayed a Ki at adenosine A2 receptor of 4570 nM.
Taken in the same sequence, the figures for `Cn1cnc2c(N[C@@H]3C[C@H]4C[C@@H]3CC4=O)ncnc21` (relative stereo) [Example 29, (±)-N^6-[endo-2'-aminonorbornan-5-one]-9-methyladenine] were 501 nM, over 20 and over 10000 nM.
On to `Cn1cnc2c(N[C@H]3C[C@H]4C[C@@H]3CC4=O)ncnc21` (relative stereo) [Example 33], for which, on adenosine A1 receptor [1], the Ki was determined as 42.7 nM and the “Selectivity Ratio (A2 Ki /A1 Ki)” value worked out at 269. At adenosine A2 receptor, this compound displayed a Ki of 11500 nM.
Take `Cn1cnc2c(N[C@H]3C[C@@H]4CC(=O)[C@H]3C4)ncnc21` (relative stereo) [Example 34]: at adenosine A1 receptor [1], the inhibition constant (Ki) was determined as 69.2 nM and the “Selectivity Ratio (A2 Ki /A1 Ki)” value was 218. This compound also came in with a Ki at adenosine A2 receptor of 15100 nM.
For `Cn1cnc2c(N[C@H]3C[C@H]4C[C@@H]3[C@H](O)C4)ncnc21` (relative stereo) [Example 35], at adenosine A1 receptor [1], the affinity, expressed as Ki, was 295 nM and the “Selectivity Ratio (A2 Ki /A1 Ki)” value is on record as 120. On adenosine A2 receptor, this compound returned a Ki of 35500 nM.
As for `Cn1cnc2c(N[C@H]3C[C@H]4C[C@@H]3c3ccc(O)cc34)ncnc21` (relative stereo) [Example 37, (±)-N^6-(exo-2'-amino-6'-hydroxybenzonorbornyl)-9-methyladenine], at adenosine A1 receptor [1], the Ki came to 11.5 nM and the “Selectivity Ratio (A2 Ki /A1 Ki)” value was determined as 397. At adenosine A2 receptor, this compound displayed a Ki of 4570 nM.
Regarding `CCCn1cnc2c(N[C@@H]3C[C@H]4C[C@@H]3C[C@H]4O)ncnc21` (relative stereo) [Example 42], the results for the Ki on adenosine A1 receptor [1] and on adenosine A2 receptor were 28.8 nM and 6460 nM, respectively. The “Selectivity Ratio (A2 Ki /A1 Ki)” value on adenosine A1 receptor [1] came out at 224.
`CCCn1cnc2c(N[C@@H]3C[C@H]4C[C@@H]3C[C@@H]4O)ncnc21` (relative stereo) [Example 43]: the Ki was 257 nM on adenosine A1 receptor [1] and over 10000 nM on adenosine A2 receptor. The “Selectivity Ratio (A2 Ki /A1 Ki)” value on adenosine A1 receptor [1] was over 39.
In the same order, the values of `CC(C)n1cnc2c(N[C@@H]3C[C@H]4C[C@@H]3CC4=O)ncnc21` (relative stereo) [Example 44] are 251 nM, 21400 nM and 85.
Consider `CC(C)n1cnc2c(N[C@@H]3C[C@H]4C[C@@H]3C[C@H]4O)ncnc21` (relative stereo) [Example 45], for which, at adenosine A1 receptor [1], the Ki turned out to be 295 nM and the “Selectivity Ratio (A2 Ki /A1 Ki)” value is over 34. Moreover, the inhibitory constant (Ki) at adenosine A2 receptor is over 10000 nM.
With `CC(C)n1cnc2c(N[C@@H]3C[C@H]4C[C@@H]3C[C@@H]4O)ncnc21` (relative stereo) [Example 46], on adenosine A1 receptor [1], the affinity, expressed as Ki, was 295 nM and the “Selectivity Ratio (A2 Ki /A1 Ki)” value is reported as over 34. This compound also gave a Ki at adenosine A2 receptor of over 10000 nM.
In the same order, the values of `CCN(CC)c1nc2c(NC3CCCC3)ncnc2n1C` [Example 14] are 3.72 nM, 117 and 436 nM.
With `Cn1c(N2CCOCC2)nc2c(NC3CCCC3)ncnc21` [Example 15], on adenosine A1 receptor [1], affinity was put at a Ki of 42 nM and the “Selectivity Ratio (A2 Ki /A1 Ki)” value is reported as over 238. The Ki at adenosine A2 receptor was over 10000 nM.

The Ki is the dissociation constant of the complex between target and ligand, obtained from inhibition or displacement. A lower Ki goes with higher affinity. The term Kb denotes the equilibrium dissociation constant of an antagonist, usually derived from a functional assay.

Values taken from US5670501A, “N-substituted 9-alkyladenines” (Discovery Therapeutics, Inc., priority 1994, dated 1997).
